The values below come from US4438201A, “Amidohydrolase having ability to depantothenylate an antibiotic” (Sanraku-Ocean Co., Ltd., priority 1981, dated 1984).

This test relates to amidohydrolase (enzyme of this invention). The experiment in a line: Experiment C: acyl transfer from acyl-CoA to 6-APA. Type of test: biochemical, Streptomyces fulvoviridis A933. The conditions noted are these: acetyl-CoA or glutaryl-CoA; 37° C., 3 hours. The protocol: 0.2 M Potassium phosphate buffer, pH 7.4 (10 μl), 10 μl of 6-aminopenicillanic acid (6-APA) (500 μg/ml), 20 μl of acyl-CoA (5 μmoles/ml) and 10 μl of the enzyme preparation from Example 1 were mixed and incubated at 37° C. for 3 hours. The products were analyzed by HVPE in the same way as in Example 2, employing acetic acid buffer, pH 4.5 Acetyl-CoA and glutaryl-CoA were used as acyl-CoA.
The controls were the same reaction mixtures minus enzyme solution and acyl-CoA respectively.

For the compound `CC1(C)S[C@@H]2[C@H](N)C(=O)N2[C@H]1C(=O)O` [6-APA, 6-aminopenicillanic acid], the “Acyl transfer from acyl-CoA to the amino group” value is “converted to the corresponding acyl-6-APA”.
